Data as given in patent publication US20090221624A1, “4-AMINOQUINOLINE COMPOUNDS FOR TREATING VIRUS-RELATED CONDITIONS” (priority 2005, published 2009).
pEC50: −log10 of the molar value. Like-named read-outs stand apart in the source and are kept apart here.

Experiments:
RSV minigenome = experiment: RSV minigenome-dependent β-galactosidase expression assay (RSV β-Gal); assay type: cell-based, respiratory syncytial virus; details: for pEC50: Secondary Data, RSV, read-out: RSV EC50; for RSV TI: therapeutic index CC50/EC50, RSV; for inhibition at 25 µM: primary screening, 25 μM final concentration, 24 hours, percent inhibition of viral replication, read-out: RSV Inh
YFV (YF-hRuPac cells) = experiment: microbe, parasite or virus in culture; assay type: cell-based, yellow fever virus; details: for pEC50 / inhibition at 25 µM: Yellow fever virus; for pEC50: read-out: YFV EC50; for inhibition at 25 µM: 24 h, read-out: YFV Inh
EBOV minigenome = experiment: microbe, parasite or virus in culture; assay type: cell-based, Ebola virus; details: for pEC50: read-out: EBOV EC50; for inhibition at 25 µM: 24 h, read-out: EBOV Inh
DNG (D2-hRuPac cells) = experiment: DNG antiviral activity, D2-hRuPac cells, Renilla luciferase; assay type: cell-based, Dengue fever virus; details: Dengue virus, secondary screening
[1] = tested on: viable cells (intracellular ATP)
WNV (WN-hRuPac cells) = experiment: WNV antiviral activity, WN-hRuPac cells, Renilla luciferase; assay type: cell-based, West Nile virus; details: for pEC50 / inhibition at 25 µM: West Nile virus; for pEC50: Secondary Data, WNV, read-out: WNV EC50; for WNV TI: therapeutic index CC50/EC50, WNV; for inhibition at 25 µM: primary screening, 25 μM final concentration, 24 hours, percent inhibition of viral replication, read-out: WNV Inh
SINV (SR19-F-luc cells) = experiment: SINV antiviral activity, SR19-F-luc cells, Firefly luciferase; assay type: cell-based; details: Sindbis virus; for pEC50: secondary screening, SR19-F-luc cells; for inhibition at 25 µM: primary screening, 25 μM final concentration, 24 hours, percent inhibition of viral replication, read-out: SINV Inh
[2] = tested on: HCV replicon (Clone A cells, Huh7, subgenomic hepatits C virus RNA); experiment: HCV Neo screening assay (HCV replicon, NPTII ELISA); assay type: cell-based, hepatitis C virus; details: for pEC50 / inhibition at 25 µM: Hepatitis C virus, Huh-7; for pEC50: Secondary Data, HCV; for inhibition at 25 µM: primary screening, 25 μM final concentration, 24 hours, percent inhibition of viral replication, read-out: HCV Inh; for HCV TI: therapeutic index CC50/EC50, HCV
[3] = human respiratory syncytial virus

Row | SMILES | RSV TI (RSV minigenome) | YFV TI (YFV (YF-hRuPac cells)) | pEC50 (YFV (YF-hRuPac cells)) | pEC50 (DNG (D2-hRuPac cells)) | pEC50 (WNV (WN-hRuPac cells)) | WNV TI (WNV (WN-hRuPac cells)) | pEC50 (SINV (SR19-F-luc cells)) | pEC50 (RSV minigenome; [3]) | inhibition at 25 µM (RSV minigenome; [3]) [%] | inhibition at 25 µM (YFV (YF-hRuPac cells)) [%] | inhibition at 25 µM (EBOV minigenome; Zaire ebolavirus) [%] | CC50 (in vitro; DNG CC50) [µM] | CC50 (in vitro; EBOV CC50) [µM] | CC50 (in vitro; RSV CC50) [µM] | CC50 (in vitro; SINV CC50) [µM] | CC50 (in vitro; WNV CC50) [µM] | CC50 (in vitro; YFV CC50) [µM] | inhibition at 25 µM (WNV (WN-hRuPac cells)) [%] | inhibition at 25 µM (SINV (SR19-F-luc cells)) [%] | inhibition at 25 µM [2] [%] | other results
1 | COc1ccccc1Nc1cc(C)nc2c(C)c(C)cc(N)c12 [Compound 79] | 23.3 | 16.53 | 5.51 | 5.08 | 4.72 | 2.7 | 5.07 |  |  |  |  |  |  |  |  |  |  |  |  |  | pEC50 (RSV minigenome): 5.66; EBOV Inh (EBOV minigenome): 49.83%; pEC50 (EBOV minigenome): 4.36; CC50 (in vitro; HCV CC50): ≥ 75 µM; CC50 [1]: 51.2 µM
2 | c1ccc2cc(Nc3c4ccccc4nc4ccccc34)ccc2c1 [Compound 1] | 25.16 | 7.5 | 5.20 | 5.14 | 5.24 | 8.34 | 4.55 | 5.72 | 99.9 | 77.5 | 39.8 | 47.6 | 47.6 | 47.6 | 47.6 | 47.6 | 47.6 | 65.4 | 34.1 | 177 | pEC50 (EBOV minigenome; Zaire ebolavirus): 4.45; CC50 (in vitro; HCV CC50): 3.83 µM; pEC50 [2]: 5.19; HCV TI [2]: 0.59
3 | CCc1ccccc1Nc1cc(C)nc2c(OC)cccc12 [Compound 24] | 12.86 | 0.77 | ≤ 4.12 | 4.56 | 4.59 | 2.26 | 4.78 | 5.35 | 94.7 | 67.3 | 35.3 | 57.9 | 57.9 | 57.9 | 57.9 | 57.9 | 57.9 | 73.9 | 64.1 | 43.7 | pEC50 (EBOV minigenome; Zaire ebolavirus): 4.25
4 | Cc1ccc2nc(C)cc(NCc3ccco3)c2c1 [Compound 23] | 19.91 | 8.94 | 5.19 | 4.59 | 5.42 | 15.41 | ≤ 4.12 | 5.54 | 92 | 86.3 | -1.14 | 57.9 | 57.9 | 57.9 | 57.9 | 57.9 | 57.9 | 70.3 | 22.8 | 13.7 | pEC50 (EBOV minigenome; Zaire ebolavirus): 4.12; CC50 (in vitro; HCV CC50): ≥ 75 µM
5 | CCOC(=O)c1ccc2ncc(C(=O)OCC)c(NCCCOC(=O)C(Cl)(Cl)Cl)c2c1 [Compound 64] | 2.75 | 1.32 | 4.34 | 5.38 | 5.05 | 6.8 | 4.47 | 4.66 | 84.9 | 25.8 | 90.1 | 60.5 | 60.5 | 60.5 | 60.5 | 60.5 | 60.5 | 37.2 | 26.1 | 43.4 | pEC50 (EBOV minigenome; Zaire ebolavirus): 4.81
6 | CCOC(=O)c1cnc2ccc(F)cc2c1Nc1ccc(S(=O)(=O)Nc2nc(C)cc(C)n2)cc1 [Compound 74] |  | 7.75 | 5.01 | 5.39 | 5.01 | 7.72 | ≤ 4.12 | ≤ 4.12 | 26.6 | 93.5 | 76.1 | ≥ 75 | ≥ 75 | ≥ 75 | ≥ 75 | ≥ 75 | ≥ 75 | 90.5 | 19.4 | 39.4 | 
7 | CCOC(=O)c1ccc2ncc(C(=O)OCC)c(NCc3ccco3)c2c1 [Compound 13] | 12.07 | 3.98 | 5.05 | 4.98 | 5.32 | 7.4 | 4.35 | 5.53 | 92.1 | 89.5 | 59 | 35.4 | 35.4 | 35.4 | 35.4 | 35.4 | 35.4 | 98 | -12.1 | 27.4 | pEC50 (EBOV minigenome; Zaire ebolavirus): 5.22; CC50 (in vitro; HCV CC50): ≥ 75 µM
8 | Cc1ccc2nc3c(c(Nc4ccc(O)cc4)c2c1)CCC3 [Compound 16] | 4.81 | 1.63 | 4.68 | 5.03 | 4.88 | 2.61 | 5.82 | 5.15 | 88.5 | 75.9 | 7.83 | 34.1 | 34.1 | 34.1 | 34.1 | 34.1 | 34.1 | 66.8 | 79.5 | 119 | pEC50 (EBOV minigenome; Zaire ebolavirus): 4.52; CC50 (in vitro; HCV CC50): 33.5 µM; pEC50 [2]: 5.05; HCV TI [2]: 3.72
9 | COC(=O)c1ccc(Nc2c3c(nc4ccccc24)CCC3)cc1 [Compound 8] | 7.73 | 2.91 | 4.59 | 4.21 | 4.23 | 1.27 | 4.62 | 5.01 | 75.5 | 66.8 | 4.74 | ≥ 75 | ≥ 75 | ≥ 75 | ≥ 75 | ≥ 75 | ≥ 75 | 49 | 34.9 | 98.9 | pEC50 (EBOV minigenome; Zaire ebolavirus): 4.26; CC50 (in vitro; HCV CC50): 71.6 µM; pEC50 [2]: 6.89; HCV TI [2]: 550.77
